Measurements from PubChem BioAssay (NCI).
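Cultured in 96-well plates, cells were exposed to test compound for 48 hours across five concentrations. TGI denotes the concentration required for complete inhibition of growth.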

Tests used:
Assay in all cases: inhibition of tumour cell growth, NCI panel, 48 h
786-0 renal = system: 786-0 renal
SN12C renal = system: SN12C renal
RPMI-8226 leukemia = system: RPMI-8226 leukemia
NCI-H23 lung = system: NCI-H23 lung
M14 melanoma = system: M14 melanoma
U251 CNS = system: U251 CNS
T-47D breast = system: T-47D breast
NCI-H226 lung = system: NCI-H226 lung
COLO 205 colon = system: COLO 205 colon
MDA-N = system: MDA-N
BT-549 breast = system: BT-549 breast
HT29 colon = system: HT29 colon
SF-539 CNS = system: SF-539 CNS
CAKI-1 renal = system: CAKI-1 renal
ACHN renal = system: ACHN renal
UO-31 renal = system: UO-31 renal
MDA-MB-435 = system: MDA-MB-435
SK-MEL-5 melanoma = system: SK-MEL-5 melanoma
HCT-116 colon = system: HCT-116 colon
OVCAR-3 ovarian = system: OVCAR-3 ovarian

Structure (SMILES) | TGI (786-0 renal) [µM] | TGI (SN12C renal) [µM] | TGI (RPMI-8226 leukemia) [µM] | TGI (NCI-H23 lung) [µM] | TGI (M14 melanoma) [µM] | TGI (U251 CNS) [µM] | TGI (T-47D breast) [µM] | TGI (NCI-H226 lung) [µM] | TGI (COLO 205 colon) [µM] | TGI (MDA-N) [µM] | TGI (BT-549 breast) [µM] | TGI (HT29 colon) [µM] | TGI (SF-539 CNS) [µM] | TGI (CAKI-1 renal) [µM] | TGI (ACHN renal) [µM] | TGI (UO-31 renal) [µM] | TGI (MDA-MB-435) [µM] | TGI (SK-MEL-5 melanoma) [µM] | TGI (HCT-116 colon) [µM] | TGI (OVCAR-3 ovarian) [µM]
O=C(O)c1cnccc1-c1cc(=O)[nH]n1-c1ccccc1 | > 100 | > 100 | > 100 | > 100 | > 100 | > 100 | > 100 | > 100 | 34.3 | > 100 | > 100 | > 67.1 | > 71.2 | > 100 | > 100 | > 100 | > 100 | > 100 | > 100 | > 100
CC1=C(C(=O)OCCc2ccc([N+](=O)[O-])cc2)C(c2ccccc2C(F)(F)F)C(C(=O)OC(C)C)=C(C)N1 (stereo not given) | > 100 | 26.7 | > 100 | > 100 | 16.2 | > 100 | > 100 | 21.5 | 16.3 | > 100 | > 100 | > 100 | > 100 | > 100 | > 100 | > 100 | > 100 | 3.09 | > 100 | > 100
C/C(=N/NC(=S)N1CCCCCC1)c1ccccc1O | 39.3 | 40.9 | 40.4 | > 100 | 11 | > 100 | > 33.6 | > 59.5 | > 49.3 | > 100 | > 100 | 39.7 | 28.5 | > 96.2 | 39 | > 88.3 | > 100 | > 37.7 | > 100 | > 40.9
COc1ccc(Cc2cc(OC)c(OC)c(OC)c2)cc1O | > 100 | > 100 | > 100 | > 100 | > 100 | > 22.7 | > 100 | 99.4 | > 57.1 | > 100 | > 100 | > 90.6 | 0.041 | > 100 | > 100 | > 63.2 | > 100 | > 37 | 13.6 | > 100
C/C=C1/CN2CCC34C5=CC(=O)C(c6cc7c(cc6OC)N(C)C6=C(C(=O)OC)CC8(CC)CCCN9CCC67C98)=CC5=NC23CCC1C4C(=O)OC (stereo not given) | 24.9 | 27.7 | 16.6 | 28.2 | 24.8 | 28.6 | 29 | 39 | 22.9 | 27 | 29.7 | 28 | 28 | 21.9 | 29.1 | 24.6 | 26 | 28.5 | 23.1 | 27.4
CCOC(=O)N/N=C/C1=NN(C(=O)OCC)S(=O)C1C (stereo not given) | > 100 | > 100 | > 100 | > 100 | > 100 | > 100 | > 100 | > 100 | > 100 | > 100 | > 100 | > 100 | > 100 | > 100 | > 100 | > 100 | > 100 | > 100 | > 100 | > 100
CCOC(=O)c1ccc(-c2cccs2)n1C | > 100 | > 100 | > 100 | > 100 | > 100 | > 100 | > 92.4 | > 100 | > 100 | > 100 | > 100 | > 100 | > 100 | > 100 | > 100 | > 100 | > 100 | > 100 | > 100 | > 100
CCOC(=O)c1c(N2CCOCC2)[nH]c(=O)c(C(c2c(O)c(C(=O)OCC)c(N3CCOCC3)[nH]c2=O)C(C)C)c1O | > 100 | > 100 | > 100 | > 100 | > 100 | > 100 | > 100 | > 100 | > 100 | > 100 | > 100 | > 100 | > 100 | > 100 | > 100 | > 100 | > 100 | > 100 | > 100 | > 100
C/C=C/C=C/C1=NN(c2cccc(S(=O)(=O)O)c2)C2(C1)C(Cl)C(=O)N2c1nc2ccccc2s1 (stereo not given) | 26.7 | 32.1 | > 51.6 | 32.1 | 29.4 | 23.8 | 21.3 | 32 | 35.3 | 29 | 34 | 33.3 | 27.8 | 20.9 | 28.8 | 4.15 | 26.6 | 25.1 | 27.7 | 24.7
C[C@]1(O)CC(=O)c2c(c(-c3ccc4cc5c(c(O)c4c3O)C(=O)C[C@@](C)(O)C5)c3cccc(O)c3c2O)C1 | 17.1 | 15.8 | 47.8 | 12.9 | 29.8 | 12.3 | 14.4 | 21.9 | 3.3 | 19.4 | 18.6 | 20 | 6.45 | 18.2 | 18 | 14.8 | 41 | 14 | 79.7 | 17.2
CCOC(=O)c1c(Nc2ccccc2)sc2cccnc12 | 48.3 | 45 | 58.3 | 67.2 | 26.4 | > 57.9 | > 100 | 57.1 | > 60.5 | 58.3 | 58.8 | 49.6 | 23.6 | 98.4 | > 88 | 43.4 | 54.6 | 24.3 | 46.7 | 48.7
C[C@@]12C[C@@H](c3ccccc3O1)N1CCSC1=N2 | > 100 | > 100 | > 100 | > 100 | > 100 | > 100 | > 100 | > 100 | > 100 | > 100 | > 100 | > 100 | > 100 | > 100 | > 100 | > 100 | > 100 | > 100 | > 100 | > 100
